Laboratory results: ChEMBL document CHEMBL1201862, “PubChem BioAssay data set” (2004)
Activity calls are given as the source filed them.

How the values were obtained:
[1] = viability loss in CEM21 cells – cell-based, CellTiter-Glo luminescence, cherry-picked, cytotoxicity control for viral fusion inhibitor project, dose response (AID 652042); format: functional;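 also: potency for signal decrease meaning cytotoxicity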
Protein RecA = target: T1, Protein RecA (Mycobacterium tuberculosis, UniProt P9WHJ3); test: Fluorescence Cell-Free Homogeneous Dose Retest to Identify Inhibitors of RecA-Intein Splicing Activity. [Related pubchem assays (depositor defined):AID2097, AID2223, AID489010, AID492950]; format: functional
T1 sequence (P9WHJ3 whole entry): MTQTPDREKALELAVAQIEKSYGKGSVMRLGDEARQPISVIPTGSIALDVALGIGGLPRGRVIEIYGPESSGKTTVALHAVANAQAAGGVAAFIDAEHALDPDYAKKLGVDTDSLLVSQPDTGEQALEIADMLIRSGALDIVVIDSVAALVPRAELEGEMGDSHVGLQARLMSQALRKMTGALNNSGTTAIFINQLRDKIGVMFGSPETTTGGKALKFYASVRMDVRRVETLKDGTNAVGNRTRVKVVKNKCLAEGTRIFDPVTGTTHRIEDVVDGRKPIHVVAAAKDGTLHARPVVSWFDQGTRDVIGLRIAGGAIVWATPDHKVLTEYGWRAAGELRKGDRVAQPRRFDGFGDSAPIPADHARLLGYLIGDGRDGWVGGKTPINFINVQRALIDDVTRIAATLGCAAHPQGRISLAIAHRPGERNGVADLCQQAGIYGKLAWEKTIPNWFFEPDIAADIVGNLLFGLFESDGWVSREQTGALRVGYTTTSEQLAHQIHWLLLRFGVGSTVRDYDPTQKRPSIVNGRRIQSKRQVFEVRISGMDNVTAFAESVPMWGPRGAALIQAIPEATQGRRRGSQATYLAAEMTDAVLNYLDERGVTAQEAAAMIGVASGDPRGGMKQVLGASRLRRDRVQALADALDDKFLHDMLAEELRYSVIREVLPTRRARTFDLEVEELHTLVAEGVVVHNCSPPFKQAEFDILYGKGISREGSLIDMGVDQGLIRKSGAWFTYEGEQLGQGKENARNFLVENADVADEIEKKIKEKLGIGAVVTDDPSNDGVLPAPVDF

[2] = blockers of HIV-1 ZM109 envelope-driven cell-cell fusion – HeLa effector, CEM target cells, luciferase, cherry-pick, dose response (AID 652058); format: functional, cell-based;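 also: luciferase signal from HIV-1 Env mediated cell-cell fusion of effector and target cells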
[3] = Intein inhibitors as potential Tuberculosis drugs, a cytotoxicity screen. [Related pubchem assays (depositor defined):AID2221, AID2223, AID434968, AID435010, AID449749, AID449750, AID489010]; format: functional
BJ [4] = test: cells; format: functional, cell-based; details: Homo sapiens
[5] = blockers of HIV-1 envelope-mediated cell-cell fusion – cherry-pick, dose response (AID 652057); format: functional, cell-based
[6] = target: T2, Replicative DNA helicase DnaB (Mycobacterium tuberculosis, UniProt P9WMR3); test: DnaB intein splicing inhibitors, dose response, biochemical, cell-free fluorescence (AID 449749); format: functional
T2 sequence (P9WMR3 whole entry): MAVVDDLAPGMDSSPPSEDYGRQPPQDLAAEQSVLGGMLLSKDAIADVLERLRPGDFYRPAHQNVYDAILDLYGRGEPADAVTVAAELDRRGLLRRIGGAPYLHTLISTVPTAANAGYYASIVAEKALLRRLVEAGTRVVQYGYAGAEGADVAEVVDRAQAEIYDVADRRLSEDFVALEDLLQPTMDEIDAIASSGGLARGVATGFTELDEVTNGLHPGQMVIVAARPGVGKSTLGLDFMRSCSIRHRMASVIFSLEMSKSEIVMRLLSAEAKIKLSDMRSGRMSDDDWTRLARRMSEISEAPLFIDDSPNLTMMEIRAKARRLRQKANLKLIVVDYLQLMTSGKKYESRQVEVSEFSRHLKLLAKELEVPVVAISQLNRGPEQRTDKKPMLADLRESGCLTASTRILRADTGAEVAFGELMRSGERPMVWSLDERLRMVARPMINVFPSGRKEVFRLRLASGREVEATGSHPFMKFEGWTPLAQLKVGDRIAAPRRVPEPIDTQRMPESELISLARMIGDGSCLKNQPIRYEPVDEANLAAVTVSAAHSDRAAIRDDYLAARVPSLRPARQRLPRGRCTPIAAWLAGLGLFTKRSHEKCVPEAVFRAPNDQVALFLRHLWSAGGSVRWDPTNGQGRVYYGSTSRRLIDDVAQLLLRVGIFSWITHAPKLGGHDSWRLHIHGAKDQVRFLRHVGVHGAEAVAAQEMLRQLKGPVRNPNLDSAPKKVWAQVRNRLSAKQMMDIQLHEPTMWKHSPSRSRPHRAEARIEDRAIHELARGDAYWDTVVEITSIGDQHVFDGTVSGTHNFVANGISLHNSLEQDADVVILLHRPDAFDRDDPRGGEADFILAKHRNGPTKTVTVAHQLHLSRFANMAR

BJ [7] = test: growth inhibition of engineered Ras-driven BJ cells – cell-based, alamar blue fluorescence, cherrypicked samples, dose response (AID 2631); format: functional; details: Homo sapiens;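 also: confirmatory dose-response assay in RAS-dependent BJ fibroblasts engineered with TERT, LT and ST, with cytotoxicity read by fluorescence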
Nonstructural protein 1 = Nonstructural protein 1 (Influenza A virus, UniProt Q194T2); format: functional, Influenza A virus (A/California/07/2009(H1N1))
[8] = HIV-1 AD8 envelope cell-cell fusion blockers – cherry-pick, dose response (AID 652062); format: functional, cell-based;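 also: luciferase signal from cell-cell fusion driven by HIV-1 clade B AD8 Env; potency is for inhibitors of fusion seen as a drop in luminescence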
BJ [9] = test: BJ-TERT fibroblast viability loss – cell-based, RAS-independent, luminescence, dose response (AID 1933); format: functional; details: Homo sapiens
INS1 = test: INS-1E survival protection against cytokine death – cell-based, luminescence, retest, dose response (AID 449756); format: functional; details: Rattus norvegicus;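 also: cell death triggered by IL-1 beta plus TNF-alpha plus IFN-gamma mixture; protective hits raise ATP signal compared with cytokine alone wells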
[10] = off-target signal loss in HeLa-CEM21 co-culture – HeLa F-luc CTL cells, cherry-picked, counter-screen for HIV-1 Env fusion inhibitor project, dose response (AID 652040); format: functional, cell-based;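 also: potency for signal decrease marking cytotoxic or nonspecific inhibition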
[11] = DRD fibroblast viability loss – cell-based, non-viral oncogenic, luminescence, dose response (AID 1934); format: functional; details: Homo sapiens
BJ [12] = test: BJ-TERT-LT-ST fibroblast viability loss – cell-based, RAS-independent, luminescence, dose response (AID 1935); format: functional; details: Homo sapiens;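 also: BJ fibroblasts immortalized with TERT plus LT and ST oncogenes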
Troponin, cardiac muscle = Troponin, cardiac muscle (Homo sapiens, UniProt P19429+P45379+P63316); test: Fluorescence-based biochemical high throughput dose response assay for activators of the calcium sensitivity of cardiac Regulated Thin Filaments (RTF). [Related pubchem assays (depositor defined):AID493008, AID493018, AID504382, AID504383]; format: protein-complex assay
[13] = target: DNA dC->dU-editing enzyme APOBEC-3A (Homo sapiens, UniProt P31941); test: Dose Response confirmation of small molecule APOBEC3A DNA Deaminase Inhibitors via a fluorescence-based single-stranded DNA deaminase assay. [Related pubchem assays (depositor defined):AID493011, AID493024]; format: functional
[14] = target: DNA dC->dU-editing enzyme APOBEC-3G (Homo sapiens, UniProt Q9HC16); format: functional;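 also: Dose-response counterscreen measuring inhibition of APOBEC3G DNA deaminase activity, run while confirming APOBEC3A inhibitors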
[15] = NIH/3T3 cell viability loss – mouse embryonic fibroblasts, dry powder, set 2, cytotoxicity control, dose response (AID 493247); format: functional, cell-based; details: Fibroblast
Trypanosoma cruzi = test: anti-trypanosomal activity in host cells – cell-based, plate reader, dry powder, set 3, dose response (AID 493197); format: functional
[16] = target: Potassium voltage-gated channel subfamily KQT member 2 (Rattus norvegicus, UniProt O88943, W236L); test: potentiation of rat KCNQ2 current – cell-based, automated electrophysiology, mechanism study for KCNQ2 potentiator project, dose response (AID 2603); format: functional
Cytochrome P450 2D6 = Cytochrome P450 2D6 (Homo sapiens, UniProt P10635);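 also: CYP2D6 member of a cytochrome P450 panel assay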
Beta-galactosidase = Beta-galactosidase (Escherichia coli, UniProt Q8VNN2); test: detection-enzyme interference by beta-gal modulators – biochemical, E. coli enzyme, set 3, artefact control for CCR6 antagonist project, dose response (AID 504712); format: functional
[17] = target: T3, High affinity choline transporter 1 (Homo sapiens, UniProt Q9GZV3); test: human choline transporter blockers, potency – cell-based, 5-point CRC, membrane potential dye, dose response (AID 504840); format: functional
T3 sequence (Q9GZV3 whole entry): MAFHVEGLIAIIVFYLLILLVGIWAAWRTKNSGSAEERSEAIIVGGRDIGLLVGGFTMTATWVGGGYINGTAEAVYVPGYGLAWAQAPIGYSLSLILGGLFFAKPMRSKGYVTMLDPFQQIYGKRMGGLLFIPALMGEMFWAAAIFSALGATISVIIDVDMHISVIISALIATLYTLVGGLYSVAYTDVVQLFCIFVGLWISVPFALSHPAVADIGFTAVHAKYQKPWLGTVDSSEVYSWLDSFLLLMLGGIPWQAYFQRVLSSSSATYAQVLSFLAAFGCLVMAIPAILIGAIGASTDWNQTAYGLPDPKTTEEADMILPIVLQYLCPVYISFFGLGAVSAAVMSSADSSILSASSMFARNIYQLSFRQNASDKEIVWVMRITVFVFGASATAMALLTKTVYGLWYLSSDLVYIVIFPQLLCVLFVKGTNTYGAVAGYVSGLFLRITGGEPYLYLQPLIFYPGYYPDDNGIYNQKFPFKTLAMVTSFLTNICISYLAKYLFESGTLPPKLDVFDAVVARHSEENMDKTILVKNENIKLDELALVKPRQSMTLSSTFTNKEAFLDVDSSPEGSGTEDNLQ

[18] = viability of uninfected HEp-2 cells – cell-based, HTS, cytotoxicity control for RSV inhibitor project, dose response (AID 2410); format: functional; details: human respiratory syncytial virus
[19] = target: T4, Voltage-gated N-type calcium channel alpha-1B subunit/Amyloid beta A4 precursor protein-binding family A member 1 (Homo sapiens, UniProt Q00975+Q02410); format: protein assay
[20] = loss of viability in HepG2 cells – cell-based, CellTiter-Glo, cherry-picked, cytotoxicity control for Shn3 inhibitor project, dose response (AID 624134); format: functional
[21] = non-specific 3'UTR reporter inhibition in Clone20-Shn3RL – cell-based, Renilla luciferase, cherry-picked, counter-screen for Shn3 inhibitor project, dose response (AID 624133); format: functional
[22] = target: T4, Voltage-gated N-type calcium channel alpha-1B subunit/Amyloid beta A4 precursor protein-binding family A member 1; format: protein assay; remark: listed apart in the source
[23] = reduction of Shn3 3'UTR-driven luciferase in osteoblasts – cell-based, Clone20 osteoblasts, firefly luciferase, cherry-picked, dose response (AID 624132); format: functional;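 also: firefly luciferase luminescence from reporter carrying the Shn3 3'UTR in osteoblasts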

C(=N\Nc1nncc2ccccc12)/c1ccccn1
AC50 [1]: 4.9 µM (active)
EC50 (Protein RecA): 1.29 µM (active)
AC50 [2]: < 0.26 µM (active)
CC50 [3]: 6.58 µM (active)
EC50 (BJ [4]): 10.8 µM (inconclusive)
AC50 [5]: 0.478 µM (active)
AC50 [6]: 3.19 µM (active)
EC50 (BJ [7]): 3.77 µM (active)
IC50 (Nonstructural protein 1): 4.45 µM (active)
AC50 [8]: 4.65 µM (active)
EC50 (BJ [9]): 8.71 µM (inconclusive)
AC50 (INS1): 1.58 µM (active)
AC50 [10]: 4.38 µM (active)
EC50 [11]: 5.08 µM (inconclusive)
EC50 (BJ [12]): 4.42 µM (active)

COc1cc(OC)c(C(=O)OC(C)C(=O)Nc2cccc(C(F)(F)F)c2)cc1OC (centres undefined)
EC50 (Troponin, cardiac muscle): > 71.5 µM (inactive)

CCOCc1cnc(C)nc1NCC(=O)c1c(C)[nH]c2ccc(OC)cc12
IC50 [13]: 2.59 µM (active)
IC50 [14]: 5.53 µM (active)

O=C(N/N=C/c1ccc([N+](=O)[O-])o1)C1CCCCC1
AC50 [15]: 21.5 µM (active)
AC50 (Trypanosoma cruzi): 0.501 µM (active)

CCOC(=O)c1c(-c2ccc(C)o2)csc1NC(=S)NC(=O)N(C)C
EC50 [16]: 3.01 µM (active)
AC50 (Cytochrome P450 2D6): inconclusive
IC50 (Beta-galactosidase): > 66.6 µM (inactive)

CC(=O)OCCCCCCCCCCC[N+]1(C)CCCCC1
IC50 [17]: 14.1 µM (active)
IC50 [13]: 2.03 µM (active)
IC50 [14]: 2.17 µM (active)

CCn1c(=O)c(C(=O)CN2CCCc3ccccc32)c(N)n(Cc2ccccc2)c1=O
CC50 [18]: 12.4 µM (active)
EC50 (Troponin, cardiac muscle): > 23.8 µM (inactive)

CCOc1ccc(N2C(=O)CC(Sc3nnnn3-c3ccccc3)C2=O)cc1 (centres undefined)
IC50 [19]: 3.74 µM (active)
AC50 [20]: 40.3 µM (active)
AC50 [21]: 12.1 µM (active)
IC50 (Beta-galactosidase): > 66.6 µM (inactive)
IC50 [22]: 13.4 µM (active)
AC50 [23]: 11.5 µM (active)
